Laboratory results: ChEMBL document CHEMBL5724558, “Image-based profiling of drug vulnerabilities in CRC organoids” (2024)
Where “and” joins values, the source holds several entries; their conditions need not be identical. Equal entries are not always repeated.

How the values were obtained:
Format in all cases: functional, Homo sapiens
Set-up in all cases: dose or concentration left out as unconfirmed
Colon cancer organoid [1] = test: (§1) Image-based profiling of donated chemical probes and chemogenomic kinase set in O06 CRC organoid. Image analysis is performed on the sum area metric, and the data were normalized to the DMSO control. After imaging the organoid viability is measured using the OneGloEX Luciferase Assay System. The normalized viability data and sum area are reported.
Colon cancer organoid [2] = test: as §1, with “O09” for “O06”
Colon cancer organoid [3] = test: as §1, with “O21” for “O06”

## CC(C)(O)c1cncc(-c2nc3ccc(F)cc3n2C2CC2)c1 [MSD-CYP11B2]
Colon cancer organoid [1]; Replication number 1
  Cell Viability: 79.0545% and 113.441%
Colon cancer organoid [1]; Replication number 2
  Cell Viability: 106.294% and 130.706%
Colon cancer organoid [2]; Replication number 1
  Cell Viability: 85.3446% and 107.103%
Colon cancer organoid [2]; Replication number 2
  Cell Viability: 121.971% and 103.489%
Colon cancer organoid [3]; Replication number 1
  Cell Viability: 108.022% and 122.772%
Colon cancer organoid [3]; Replication number 2
  Cell Viability: 100.134% and 120.326%

## N#CN1CC[C@H](C(=O)Nc2nc3c(s2)CN(C(=O)CN=[N+]=[N-])CC3)C1 [8RK64]
Colon cancer organoid [1]; Replication number 1
  Cell Viability: 79.1245% and 96.1943%
Colon cancer organoid [1]; Replication number 2
  Cell Viability: 91.4374% and 108.602%
Colon cancer organoid [2]; Replication number 1
  Cell Viability: 73.5983% and 85.3445%
Colon cancer organoid [2]; Replication number 2
  Cell Viability: 74.3628% and 83.6638%
Colon cancer organoid [3]; Replication number 1
  Cell Viability: 96.0935% and 89.4871%
Colon cancer organoid [3]; Replication number 2
  Cell Viability: 85.4285% and 89.7349%

## FC(F)c1nc2ccccc2n1-c1nc(N2CCOCC2)nc(N2CCOCC2)n1 [ZSTK-474]
Colon cancer organoid [1]; Replication number 1
  Cell Viability: 51.8719% and 106.162%
Colon cancer organoid [1]; Replication number 2
  Cell Viability: 61.9887% and 87.8149%
Colon cancer organoid [2]; Replication number 1
  Cell Viability: 70.4686% and 75.7987%
Colon cancer organoid [2]; Replication number 2
  Cell Viability: 41.1971% and 64.5183%
Colon cancer organoid [3]; Replication number 1
  Cell Viability: 72.4296% and 85.8537%
Colon cancer organoid [3]; Replication number 2
  Cell Viability: 82.8986% and 74.2713%

## COc1ccccc1-c1cc(Nc2cccc(CS(N)(=O)=O)c2)ncn1
Colon cancer organoid [1]; Replication number 1
  Cell Viability: 93.0282% and 99.0402%
Colon cancer organoid [1]; Replication number 2
  Cell Viability: 104.398% and 112.494%
Colon cancer organoid [2]; Replication number 1
  Cell Viability: 75.7277% and 70.3132%
Colon cancer organoid [2]; Replication number 2
  Cell Viability: 83.1557% and 105.011%
Colon cancer organoid [3]; Replication number 1
  Cell Viability: 89.4274% and 95.331%
Colon cancer organoid [3]; Replication number 2
  Cell Viability: 104.034% and 107.665%

## CCOc1cc(N2CCC(O)CC2)ccc1Nc1ncc2c(n1)N(C)c1ccccc1C(=O)N2C
Colon cancer organoid [1]; Replication number 1
  Cell Viability: 105.657% and 158.464%
Colon cancer organoid [1]; Replication number 2
  Cell Viability: 54.5485% and 108.792%
Colon cancer organoid [2]; Replication number 1
  Cell Viability: 50.6693% and 60.5891%
Colon cancer organoid [2]; Replication number 2
  Cell Viability: 44.9186% and 56.4198%
Colon cancer organoid [3]; Replication number 1
  Cell Viability: 109.771% and 116.516%
Colon cancer organoid [3]; Replication number 2
  Cell Viability: 106.608% and 109.968%

## CN1CCN(C(=O)C(C)(C)c2ccc(C(=O)Nc3cn4cc(-c5cc(C(C)(C)C)cc(C(C)(C)C)c5)ccc4n3)cc2)CC1 [T3-CLK-N]
Colon cancer organoid [1]; Replication number 1
  Cell Viability: 75.6351% and 77.2834%
Colon cancer organoid [1]; Replication number 2
  Cell Viability: 96.9336% and 98.0752%
Colon cancer organoid [2]; Replication number 1
  Cell Viability: 89.0201% and 93.1776%
Colon cancer organoid [2]; Replication number 2
  Cell Viability: 119.23% and 117.123%
Colon cancer organoid [3]; Replication number 1
  Cell Viability: 88.9475% and 97.2186%
Colon cancer organoid [3]; Replication number 2
  Cell Viability: 93.8303% and 107.653%

## O=C(/C=C/N1C[C@H]2C[C@@H]1CN2c1ccccn1)c1ccccc1O
Colon cancer organoid [1]; Replication number 1
  Cell Viability: 142.277% and 136.268%
Colon cancer organoid [1]; Replication number 2
  Cell Viability: 180.564% and 107.78%
Colon cancer organoid [2]; Replication number 1
  Cell Viability: 108.639% and 102.241%
Colon cancer organoid [2]; Replication number 2
  Cell Viability: 93.5613% and 97.7827%
Colon cancer organoid [3]; Replication number 1
  Cell Viability: 136.807% and 131.679%
Colon cancer organoid [3]; Replication number 2
  Cell Viability: 93.5448% and 99.3437%

## Nc1nc(NCc2ccccc2)nc(-c2cccc(CO)c2)n1 [ZINC32547799]
Colon cancer organoid [1]; Replication number 1
  Cell Viability: 89.5578% and 102.51%
Colon cancer organoid [1]; Replication number 2
  Cell Viability: 72.3824% and 71.8405%
Colon cancer organoid [2]; Replication number 1
  Cell Viability: 98.3992% and 98.4744%
Colon cancer organoid [2]; Replication number 2
  Cell Viability: 101.098% and 100.714%
Colon cancer organoid [3]; Replication number 1
  Cell Viability: 95.0079% and 87.3045%
Colon cancer organoid [3]; Replication number 2
  Cell Viability: 101.984% and 101.971%

## CN([C@@H]1CCc2c(CC(=O)O)c3cc(S(C)(=O)=O)ccc3n2C1)S(=O)(=O)c1ccc(F)cc1 [CRTH2-negative-control]
Colon cancer organoid [1]; Replication number 1
  Cell Viability: 102.982% and 101.171%
Colon cancer organoid [1]; Replication number 2
  Cell Viability: 44.9133% and 103.761%
Colon cancer organoid [2]; Replication number 1
  Cell Viability: 103.344% and 126.626%
Colon cancer organoid [2]; Replication number 2
  Cell Viability: 95.2483% and 103.103%
Colon cancer organoid [3]; Replication number 1
  Cell Viability: 114.066% and 111.772%
Colon cancer organoid [3]; Replication number 2
  Cell Viability: 101.538% and 90.3061%

## OCCn1cc(-c2cnc3nnn(Cc4ccc5ncccc5c4)c3n2)cn1 [PF-04217903]
Colon cancer organoid [1]; Replication number 1
  Cell Viability: 92.042% and 100.376%
Colon cancer organoid [1]; Replication number 2
  Cell Viability: 104.418% and 102.005%
Colon cancer organoid [2]; Replication number 1
  Cell Viability: 126.877% and 95.995%
Colon cancer organoid [2]; Replication number 2
  Cell Viability: 92.9183% and 79.3656%
Colon cancer organoid [3]; Replication number 1
  Cell Viability: 106.76% and 119.861%
Colon cancer organoid [3]; Replication number 2
  Cell Viability: 108.21% and 119.755%

## Cc1c(C(=O)O)cc(-c2ccc(C3CCNCC3)cc2)c2ccc(-c3ccc(C(F)(F)F)cc3)cc12.Cl
Colon cancer organoid [1]; Replication number 1
  Cell Viability: 120.986% and 114.413%
Colon cancer organoid [1]; Replication number 2
  Cell Viability: 106.141% and 127.102%
Colon cancer organoid [2]; Replication number 1
  Cell Viability: 120.061% and 98.4744%
Colon cancer organoid [2]; Replication number 2
  Cell Viability: 101.967% and 96.9469%
Colon cancer organoid [3]; Replication number 1
  Cell Viability: 85.8075% and 94.398%
Colon cancer organoid [3]; Replication number 2
  Cell Viability: 96.6667% and 83.1067%

## CN1C[C@H](Nc2cnn(C)c(=O)c2Br)C[C@H](c2ccccc2)C1
Colon cancer organoid [1]; Replication number 1
  Cell Viability: 155.67% and 115.973%
Colon cancer organoid [1]; Replication number 2
  Cell Viability: 127.596% and 115.428%
Colon cancer organoid [2]; Replication number 1
  Cell Viability: 140.201% and 85.3168%
Colon cancer organoid [2]; Replication number 2
  Cell Viability: 101.083% and 86.6646%
Colon cancer organoid [3]; Replication number 1
  Cell Viability: 130.754% and 116.395%
Colon cancer organoid [3]; Replication number 2
  Cell Viability: 102.417% and 96.6587%

## O=C1c2ccc(Nc3ccc(F)cc3F)cc2CCc2ccc(OC[C@H](O)CO)cc21 [Skepinone-L]
Colon cancer organoid [1]; Replication number 1
  Cell Viability: 90.1352% and 107.854%
Colon cancer organoid [1]; Replication number 2
  Cell Viability: 111.788% and 116.531%
Colon cancer organoid [2]; Replication number 1
  Cell Viability: 97.726% and 98.0993%
Colon cancer organoid [2]; Replication number 2
  Cell Viability: 77.28% and 97.9381%
Colon cancer organoid [3]; Replication number 1
  Cell Viability: 124.274% and 139.142%
Colon cancer organoid [3]; Replication number 2
  Cell Viability: 112.785% and 100.442%

## Cc1c(NC(=O)c2ccc(C(C)(C)C)cc2)cccc1-c1cn(C)c(=O)c(Nc2ccc(C(=O)N3CCOCC3)cc2)n1
Colon cancer organoid [1]; Replication number 1
  Cell Viability: 119.85% and 118.543%
Colon cancer organoid [1]; Replication number 2
  Cell Viability: 84.412% and 97.7895%
Colon cancer organoid [2]; Replication number 1
  Cell Viability: 87.7094% and 99.5999%
Colon cancer organoid [2]; Replication number 2
  Cell Viability: 109.316% and 107.058%
Colon cancer organoid [3]; Replication number 1
  Cell Viability: 86.5232% and 101.491%
Colon cancer organoid [3]; Replication number 2
  Cell Viability: 97.7388% and 99.4222%

## COc1cc(-c2cn([C@H]3CCc4c(F)cccc4N(CC(F)(F)F)C3=O)nn2)ccc1-n1cnc(C)c1
Colon cancer organoid [1]; Replication number 1
  Cell Viability: 98.6748% and 98.829%
Colon cancer organoid [1]; Replication number 2
  Cell Viability: 105.811% and 104.708%
Colon cancer organoid [2]; Replication number 1
  Cell Viability: 81.2479% and 97.2392%
Colon cancer organoid [2]; Replication number 2
  Cell Viability: 40.0152% and 77.6926%
Colon cancer organoid [3]; Replication number 1
  Cell Viability: 110.846% and 137.969%
Colon cancer organoid [3]; Replication number 2
  Cell Viability: 98.2534% and 104.592%

## CC(C)(C)OC(=O)N1CCCC1CNC1CCC(c2cc(F)ccc2F)(S(=O)(=O)c2ccc(Cl)cc2)CC1 (stereo not drawn) [GSI-NC]
Colon cancer organoid [1]; Replication number 1
  Cell Viability: 66.8797% and 82.4356%
Colon cancer organoid [1]; Replication number 2
  Cell Viability: 76.3317% and 68.2262%
Colon cancer organoid [2]; Replication number 1
  Cell Viability: 125.581% and 90.7884%
Colon cancer organoid [2]; Replication number 2
  Cell Viability: 108.329% and 85.8708%
Colon cancer organoid [3]; Replication number 1
  Cell Viability: 89.6265% and 62.8719%
Colon cancer organoid [3]; Replication number 2
  Cell Viability: 87.5663% and 80.102%

## C[C@@H]1CCN(C(=O)CC#N)C[C@@H]1N(C)c1ncnc2[nH]ccc12.O=C(O)CC(O)(CC(=O)O)C(=O)O [TOFACITINIB CITRATE]
Colon cancer organoid [1]; Replication number 1
  Cell Viability: 54.8894% and 73.0004%
Colon cancer organoid [1]; Replication number 2
  Cell Viability: 74.5746% and 82.0566%
Colon cancer organoid [2]; Replication number 1
  Cell Viability: 230.679% and 101.979%
Colon cancer organoid [2]; Replication number 2
  Cell Viability: 85.7625% and 94.2129%
Colon cancer organoid [3]; Replication number 1
  Cell Viability: 116.988% and 133.24%
Colon cancer organoid [3]; Replication number 2
  Cell Viability: 108.318% and 111.695%

## COc1cc(-c2cn([C@H]3CCc4ccccc4N(CC(F)(F)F)C3=O)nn2)ccc1-n1ccc(C)n1
Colon cancer organoid [1]; Replication number 1
  Cell Viability: 93.8708% and 97.1897%
Colon cancer organoid [1]; Replication number 2
  Cell Viability: 92.3722% and 127.214%
Colon cancer organoid [2]; Replication number 1
  Cell Viability: 31.4153% and 64.0297%
Colon cancer organoid [2]; Replication number 2
  Cell Viability: 67.1931% and 101.059%
Colon cancer organoid [3]; Replication number 1
  Cell Viability: 95.5395% and 92.5614%
Colon cancer organoid [3]; Replication number 2
  Cell Viability: 105.607% and 89.2857%
